What was measured:
Type in all cases: cell-based
[1] = tested on: AML cell line OCI-AML3; test: Cell viability (CellTiterGlo, 3 days), single agents and combination, in OCI-AML3; settings: Homo sapiens, OCI-AML-3, 72 h; OCI-AML3, single agent, 3 days incubation, CTG signal
[2] = tested on: AML cell line HL-60; test: Cell viability (CellTiterGlo, 3 days), single agents and combination, in HL-60; settings: Homo sapiens, 72 h; HL-60, single agent, 3 days incubation, CTG signal
[3] = tested on: AML cell line MV4;11; test: Cell viability (CellTiterGlo, 3 days), single agents and combination, in MV4;11; settings: Homo sapiens, 72 h; MV4;11, single agent, 3 days incubation, CTG signal
[4] = tested on: AML cell line EOL-1; test: Cell viability (CellTiterGlo, 3 days), single agents and combination, in EOL-1; settings: Homo sapiens, EOL1, 72 h; EOL-1, single agent, 3 days incubation, CTG signal

| Compound | IC50 [1] | IC50 [2] | IC50 [3] | IC50 [4] |
| --- | --- | --- | --- | --- |
| Cc1c(N(C(=O)c2cc(-c3cc(Cl)ccc3C(=O)N3Cc4ccccc4C[C@H]3CN3CCOCC3)n(C)c2C)c2ccc(O)cc2)cc(C#N)n1C [Compound A, 5-(5-chloro-2-{[(3S)-3-(morpholin-4-ylmethyl)-3,4-dihydroisoquinolin-2(1H)-yl]carbonyl}phenyl)-N-(5-cyano-1,2-dimethyl-1H-pyrrol-3-yl)-N-(4-hydroxyphenyl)-1,2-dimethyl-1H-pyrrole-3-carboxamide] | 5690 nM | 3100 nM | 3 nM | 18 nM |
| Nc1ncn([C@@H]2O[C@H](CO)[C@@H](O)[C@H]2O)c(=O)n1 [5-azacitidine, azacitidine] | 7100 nM | > 10000 nM | 689 nM | 187 nM |
